The source of these data is patent US7745446B2, “Pyrazolo[1,5-c]pyrimidines” (Bayer Schering Pharma Aktiengesellschaft, priority 2004, dated 2010).

One assay has as its target T1, GST-ΔPH-Akt1 (Homo sapiens, UniProt P31749).
T1 construct: named GST-deltaPH-Akt1; 107-480aa; cloned in the pAcGl vector; GST (N); made in house; host or cells: SF9 insect cells (baculovirus vector pAcG1), co-expressed with PDK1
Kind of assay: Biochemical ΔPH Akt1 assay (flashplate, 33P incorporation into histone 2B). The conditions noted are these: 100 nM ATP, histone 2B substrate; read-out: ΔPHAkt1 inhibition: IC50. The text has this: For the biochemical assay ΔPHAkt1 is used devoid of its PH domain as a GST fusion protein (named GST-deltaPH-Akt1; 107-480aa; cloned in the pAcGl vector (BD Biosciences Pharmingen)), co-expressed with PDK1 in SF9 insect cells. The protein is purified using glutathion-affinity chromatography by standard protocols.
In order to study the inhibition of Akt according to the invention, a flashplate-based assay has been developed.
The Akt1 assay is a biochemical assay using Akt1 devoid of its PH domain and co-expressed with PDK1 in insect cells. The GST-ΔPH-Akt1 assay is run in 96 well plates by incubating 100 ng/well GST-ΔPH-Akt1, 100 ng/well histone 2B (Roche, #223514) as substrate, 10 μl of compound of invention (test compounds were dissolved as 10 mM solutions in dimethylsulfoxide (DMSO) and subsequently diluted) and 100 nM ATP (including ^33P-ATP) in 100 μl of reaction buffer ([…], pH7,5; 3 mM MgCl2; 3 mM MnCl2; 3 μM Na-Orthovanadat; 1 mM DTT; 1 μg/ml PEG8000) for 80 minutes at 30° C. The reactions are terminated by adding 100 μl stopping buffer (2% H3PO4 for 5 minutes) and are washed 3 times by using washing buffer (0.9% NaCl). Relying on the incorporation of ^33P into the protein substrate histone 2B, the detection is based on the adhesion of the phosphorylated protein to the surface of scintillator-coated flash plates (NEN, USA; #SMP-200). This phosphorylation is measured by counting the plate for 60 sec. using a plate reader (Wallac Microbeta; Perkin Elmer, USA).

In a further assay the target is T2, PKA (Homo sapiens, UniProt P17612).
T2 construct: His; purchased PanVera, USA #R3791; host or cells: E. coli
Kind of assay: Biochemical PKA assay (flashplate). The conditions noted are these: 100 nM ATP; read-out: PKA inhibition: −log IC50 (converted). How it is done:
For the biochemical PKA assay the catalytic subunit of PKA is expressed in E. coli as a His-tagged human recombinant protein and purified accordingly (PanVera, USA; #R3791).
In order to study the kinase inhibition activity of the compounds according to the invention, a flashplate-based assay has been developed for the serine/threonine kinase, PKA. The assay is run in 96 well plates by incubating 1 ng/well His-PKA (PanVera, USA; #R3791), 0.5 μM/well PKA peptide (#12-394; Upstate, USA) as substrate, 10 μl of compound of invention (test compounds were dissolved as 10 mM solutions in dimethylsulfoxide (DMSO) and subsequently diluted) and 100 nM ATP (including ^33P-ATP) in 100 μl of reaction buffer ([…], pH7,5; 3 mM MgCl2; 3 mM MnCl2; 3 μM Na-Orthovanadat; 1 mM DTT) for 80 minutes at 22° C. The reactions are stopped by adding 100 μl stopping buffer (2% H3PO4 for 5 minutes) and are washed 3 times by using washing buffer (200 μl 1×PBS). Relying on the incorporation of ^33P into the peptide substrate, the detection is based on the adhesion of the phosphorylated peptide to the surface of scintillator-coated Flash plates (Perkin Elmer, USA; #SMP-103). This phosphorylation is measured by counting the plate for 60 sec. using a plate reader (Wallac Microbeta; Perkin Elmer, USA). By using this method the IC50 of the PKA inhibition is determined.

Another assay has as its system MCF7 cells. Kind of assay: Cellular proliferation/cytotoxicity assay (Alamar Blue), MCF7. The following applies: Homo sapiens, MCF7, 48 h, read-out: Anti-proliferative/cytotoxic activity: IC50 MCF7.
In a further assay the test system is MDA-MB-468 cells. Kind of assay: Cellular proliferation/cytotoxicity assay (Alamar Blue), MDA-MB-468. The following applies: Homo sapiens, MDA-MB-468, 48 h, read-out: Anti-proliferative/cytotoxic activity: IC50 MDA468. A general note: The colour change of resazurin is a common sign of viable cells or microbes.

T1 sequence (P31749 107-480, stated change not applied): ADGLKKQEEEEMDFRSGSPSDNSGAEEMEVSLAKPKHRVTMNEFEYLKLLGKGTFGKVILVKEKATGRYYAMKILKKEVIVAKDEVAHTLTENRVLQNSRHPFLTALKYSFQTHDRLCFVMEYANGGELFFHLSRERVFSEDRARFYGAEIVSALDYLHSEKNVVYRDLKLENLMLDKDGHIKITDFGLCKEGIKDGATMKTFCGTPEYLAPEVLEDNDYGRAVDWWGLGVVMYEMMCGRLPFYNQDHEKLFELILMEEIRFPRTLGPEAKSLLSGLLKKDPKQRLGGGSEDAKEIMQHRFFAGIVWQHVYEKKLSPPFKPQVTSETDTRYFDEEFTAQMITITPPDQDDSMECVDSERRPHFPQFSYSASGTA
Experimental for MCF7 cells: (§1) The anti-proliferative activity of the compounds as described herein, is evaluated using MCF7 and MDA-MB-468 (ATCC HTB-22 and HTB-132) cell lines and the Alamar Blue (Resazurin) cell viability assay (O'Brien et al. Eur J Biochem 267, 5421-5426, 2000). Resazurin is reduced to the fluorescent resorufin by cellular dehydrogenase activity, correlating with viable, proliferating cells. Test compounds are dissolved as 10 mM solutions in DMSO and subsequently diluted. MCF7 or MDA-MB-434 cells were seeded into 96 well flat bottom plates at a density of 10000 cells/well (MCF7) or 5000 cells/well (MDA-MB-468) in a volume of 200 μl/well. 24 hours after seeding, 1 μl each of the compound dilutions are added into each well of the 96 well plates. Each compound dilution is tested as at least as duplicates. Wells containing untreated control cells were filled with 200 μl DMEM containing 0.5% v:v DMSO. The cells are then incubated with the substances for 48 hours at 37° C. in a humidified atmosphere containing 5% carbon dioxide. To determine cell viability, 20 μl of a Resazurin solution (Sigma; 90 mg/l) are added. After 4 hours incubation at 37° C. the fluorescence is measured at an extinction of 544 nm and an emission of 590 nm (Wallac Victor2; Perkin Elmer, USA). For the calculation of the cell viability the emission value from untreated cells is set as 100% viability and the emission rates of treated cells are set in relation to the values of untreated cells. Viabilities are expressed as % values. The corresponding IC50 values of the compounds for cytotoxic activity are determined from the concentration-effect curves by means of non-linear regression. The analysis of the data is performed using a biostatistical program (GraphPad Prism, USA).
Experimental for MDA-MB-468 cells: as §1

On to `CNCc1ccc(C(=O)Nc2cccc(Nc3nc(-c4cccc5c4oc4ccccc45)cc4ccnn34)c2)cc1` [Example 32, N-[3-(5-Dibenzofuran-4-yl-pyrazolo[1,5-c]pyrimidin-7-ylamino)-phenyl]-4-methylaminomethyl-benzamide], for which the IC50 on GST-ΔPH-Akt1 is no more than 1.75 µM; at PKA, 6.31 to 100 µM; in the assay on MCF7 cells, no more than 16.9 µM; in the assay with MDA-MB-468 cells it was no more than 13.6 µM.
Regarding `COc1ccccc1-c1ccc(-c2cc3ccnn3c(Nc3ccc(NC(=O)c4ccc(CN)cc4)cc3)n2)cc1` [Example 56, 4-Aminomethyl-N-{4-[5-(2′-methoxy-biphenyl-4-yl)-pyrazolo[1,5-c]pyrimidin-7-ylamino]-phenyl}-benzamide], the IC50 on GST-ΔPH-Akt1 is no more than 1.75 µM; at PKA it was 6.31 to 100 µM; in the assay on MCF7 cells, no more than 16.9 µM; in the assay on MDA-MB-468 cells it was no more than 13.6 µM.
The corresponding values for `NCc1ccc(C(=O)Nc2ccc(Nc3nc(-c4ccc(-c5ccc(F)cc5)cc4)cc4ccnn34)cc2)cc1` [Example 67, 4-Aminomethyl-N-{4-[5-(4′-fluoro-biphenyl-4-yl)-pyrazolo[1,5-c]pyrimidin-7-ylamino]-phenyl}-benzamide] are no more than 1.75 µM, 6.31 to 100 µM, no more than 16.9 µM and no more than 13.6 µM.
Take `O=C(Nc1ccc(Nc2nc(-c3cccc4c3oc3ccccc34)cc3ccnn23)cc1)c1ccc(CNCCO)cc1` [Example 57, N-[4-(5-Dibenzofuran-4-yl-pyrazolo[1,5-c]pyrimidin-7-ylamino)-phenyl]-4-[(2-hydroxy-ethylamino)-methyl]-benzamide]: the IC50 on GST-ΔPH-Akt1 is no more than 1.75 µM; on PKA, greater than 100 µM; in the assay on MCF7 cells, no more than 16.9 µM; in the assay with MDA-MB-468 cells, no more than 13.6 µM.
Turning to `NCc1cccc(C(=O)Nc2ccc(Nc3nc(-c4cccc5c4oc4ccccc45)cc4ccnn34)cc2)n1` [Example 51, 6-Aminomethyl-pyridine-2-carboxylic acid [4-(5-dibenzofuran-4-yl-pyrazolo[1,5-c]pyrimidin-7-ylamino)-phenyl]-amide], the IC50 on GST-ΔPH-Akt1 was no more than 1.75 µM; on PKA, greater than 100 µM.
Take `NCc1ccc(C(=O)Nc2ccc(Nc3nc(-c4ccc(-c5ccccc5)cc4)cc4ccnn34)cc2)cc1` [Example 1, 4-Aminomethyl-N-[4-(5-biphenyl-4-yl-pyrazolo[1,5-c]pyrimidin-7-ylamino)-phenyl]-benzamide]: the IC50 on GST-ΔPH-Akt1 is no more than 1.75 µM; at PKA it was greater than 100 µM; in the assay with MCF7 cells, no more than 16.9 µM; with MDA-MB-468 cells, no more than 13.6 µM.
The corresponding values for `NCC(C(=O)Nc1cccc(Nc2nc(-c3cccc4c3oc3ccccc34)cc3ccnn23)c1)c1ccc(Cl)c(Cl)c1` (racemic) [Example 41, rac-3-Amino-N-[3-(5-dibenzofuran-4-yl-pyrazolo[1,5-c]pyrimidin-7-ylamino)-phenyl]-2-(3,4-dichloro-phenyl)-propionamide] are no more than 1.75 µM, greater than 100 µM, no more than 16.9 µM and no more than 13.6 µM.
Consider `NCc1cc(C(=O)Nc2ccc(Nc3nc(-c4cccc5c4oc4ccccc45)cc4ccnn34)cc2)ccn1` [Example 30, 2-Aminomethyl-N-[4-(5-dibenzofuran-4-yl-pyrazolo[1,5-c]pyrimidin-7-ylamino)-phenyl]-isonicotinamide], for which the IC50 is no more than 1.75 µM at GST-ΔPH-Akt1 and greater than 100 µM at PKA.
For `NCCc1ccc(C(=O)Nc2ccc(Nc3nc(-c4ccc(-c5cccc([N+](=O)[O-])c5)cc4)cc4ccnn34)cc2)cc1` [Example 81, 4-(2-Amino-ethyl)-N-{4-[5-(3′-nitro-biphenyl-4yl)-pyrazolo[1,5-c]pyrimidin-7-ylamino]-phenyl}-benzamide], the IC50 was no more than 1.75 µM on GST-ΔPH-Akt1, no more than 16.9 µM in the assay on MCF7 cells and no more than 13.6 µM with MDA-MB-468 cells.
On to `CC(C)(N)c1ccc(C(=O)Nc2cccc(Nc3nc(-c4cccc5c4oc4ccccc45)cc4ccnn34)c2)cc1` [Example 40, 4-(1-Amino-1-methyl-ethyl)-N-[3-(5-dibenzofuran-4-yl-pyrazolo[1,5-c]pyrimidin-7-ylamino)-phenyl]-benzamide], for which the IC50 at GST-ΔPH-Akt1 is no more than 1.75 µM; at PKA, 6.31 to 100 µM.
The corresponding values for `NCc1ccc(C(=O)Nc2ccc(Nc3nc(-c4ccc(-c5ccccc5)nc4)cc4ccnn34)cc2)cc1` [Example 54, 4-Aminomethyl-N-{4-[5-(6-phenyl-pyridin-3-yl)-pyrazolo[1,5-c]pyrimidin-7-ylamino]-phenyl}-benzamide] are no more than 1.75 µM and 6.31 to 100 µM.
Take `N=C(N)Nc1ccc(C(=O)Nc2ccc(Nc3nc(-c4cccc5c4oc4ccccc45)cc4ccnn34)cc2)cc1` [Example 48, N-[4-(5-Dibenzofuran-4-yl-pyrazolo[1,5-c]pyrimidin-7-ylamino)-phenyl]-4-guanidino-benzamide]: the results for the IC50 on GST-ΔPH-Akt1 and at PKA were no more than 1.75 µM and greater than 100 µM, respectively.
As for `O=C(Nc1ccc(Nc2nc(-c3ccc(Br)cc3)cc3ccnn23)cc1)c1ccc2c(c1)CCNC2` [Example 85, 1,2,3,4-Tetrahydro-isoquinoline-6-carboxylic acid {4-[5-(4-bromo-phenyl)-pyrazolo[1,5-c]pyrimidin-7-ylamino]-phenyl}-amide], the IC50 on GST-ΔPH-Akt1 was no more than 1.75 µM; in the assay on MCF7 cells, no more than 16.9 µM; with MDA-MB-468 cells it was no more than 13.6 µM.
As for `CC(=O)Nc1cccc(-c2ccc(-c3cc4ccnn4c(Nc4ccc(NC(=O)c5ccc(CN)cc5)cc4)n3)cc2)c1` [Example 60, N-{4-[5-(3′-Acetylamino-biphenyl-4-yl)-pyrazolo[1,5-c]pyrimidin-7-ylamino]-phenyl}-4-aminomethyl-benzamide], the IC50 at GST-ΔPH-Akt1 was no more than 1.75 µM; at PKA it was 6.31 to 100 µM.
Take `COc1cccc(-c2ccc(-c3cc4ccnn4c(Nc4ccc(NC(=O)c5ccc(CCN)cc5)cc4)n3)cc2)c1` [Example 78, 4-(2-Amino-ethyl)-N-{4-[5-(3′-methoxy-biphenyl-4-yl)-pyrazolo[1,5-c]pyrimidin-7-ylamino]-phenyl}-benzamide]: the IC50 at GST-ΔPH-Akt1 was no more than 1.75 µM; in the assay with MCF7 cells, no more than 16.9 µM; in the assay on MDA-MB-468 cells it was no more than 13.6 µM.
In the case of `NCc1ccc(C(=O)Nc2cccc(Nc3nc(-c4cccc5c4oc4ccccc45)cc4ccnn34)c2)cc1` [Example 17, 4-Aminomethyl-N-[3-(5-dibenzofuran-4-yl-pyrazolo[1,5-c]pyrimidin-7-ylamino)-phenyl]-benzamide], the IC50 on GST-ΔPH-Akt1 was no more than 1.75 µM; with MCF7 cells, no more than 16.9 µM; with MDA-MB-468 cells, no more than 13.6 µM.
In the same order, the values of `O=C(Nc1ccc(Nc2nc(-c3ccc(-c4cccc([N+](=O)[O-])c4)cc3)cc3ccnn23)cc1)c1ccc2c(c1)CCNC2` [Example 80, 1,2,3,4-Tetrahydro-isoquinoline-6-carboxylic acid {4-[5-(3′-nitro-biphenyl-4-yl)-pyrazolo[1,5-c]pyrimidin-7-ylamino]-phenyl}-amide] are no more than 1.75 µM, no more than 16.9 µM and no more than 13.6 µM.
Regarding `COc1ccc2cc(-c3cc4ccnn4c(Nc4ccc(NC(=O)c5ccc(CN)cc5)cc4)n3)ccc2c1` [Example 45, 4-Aminomethyl-N-{4-[5-(6-methoxy-naphthalen-2-yl)-pyrazolo[1,5-c]pyrimidin-7-ylamino]-phenyl}-benzamide], the IC50 at GST-ΔPH-Akt1 was no more than 1.75 µM; in the assay with MCF7 cells, no more than 16.9 µM; in the assay on MDA-MB-468 cells, no more than 13.6 µM.
